From ChEMBL document CHEMBL4024781, “Comprehensive Synthesis of Amino Acid-Derived Thiazole Peptidomimetic Analogues to Understand the Enigmatic Drug/Substrate-Binding Site of P-Glycoprotein” (J Med Chem, 2018)

Experiments:
P-gp (ABCB1) [1] = target: T1, P-gp (ABCB1) (Homo sapiens, UniProt P08183); assay: Activation of human P-gp expressed in high five insect cell membrane vesicles by measuring the vanadate-sensitive ATPase activity of P-gp at 0.5 uM preincubated for 5 mins in the presence of sodium orthovanadate measured after 20 mins by colorimetric method; settings: read-out: Activity
T1 sequence (P08183 whole entry): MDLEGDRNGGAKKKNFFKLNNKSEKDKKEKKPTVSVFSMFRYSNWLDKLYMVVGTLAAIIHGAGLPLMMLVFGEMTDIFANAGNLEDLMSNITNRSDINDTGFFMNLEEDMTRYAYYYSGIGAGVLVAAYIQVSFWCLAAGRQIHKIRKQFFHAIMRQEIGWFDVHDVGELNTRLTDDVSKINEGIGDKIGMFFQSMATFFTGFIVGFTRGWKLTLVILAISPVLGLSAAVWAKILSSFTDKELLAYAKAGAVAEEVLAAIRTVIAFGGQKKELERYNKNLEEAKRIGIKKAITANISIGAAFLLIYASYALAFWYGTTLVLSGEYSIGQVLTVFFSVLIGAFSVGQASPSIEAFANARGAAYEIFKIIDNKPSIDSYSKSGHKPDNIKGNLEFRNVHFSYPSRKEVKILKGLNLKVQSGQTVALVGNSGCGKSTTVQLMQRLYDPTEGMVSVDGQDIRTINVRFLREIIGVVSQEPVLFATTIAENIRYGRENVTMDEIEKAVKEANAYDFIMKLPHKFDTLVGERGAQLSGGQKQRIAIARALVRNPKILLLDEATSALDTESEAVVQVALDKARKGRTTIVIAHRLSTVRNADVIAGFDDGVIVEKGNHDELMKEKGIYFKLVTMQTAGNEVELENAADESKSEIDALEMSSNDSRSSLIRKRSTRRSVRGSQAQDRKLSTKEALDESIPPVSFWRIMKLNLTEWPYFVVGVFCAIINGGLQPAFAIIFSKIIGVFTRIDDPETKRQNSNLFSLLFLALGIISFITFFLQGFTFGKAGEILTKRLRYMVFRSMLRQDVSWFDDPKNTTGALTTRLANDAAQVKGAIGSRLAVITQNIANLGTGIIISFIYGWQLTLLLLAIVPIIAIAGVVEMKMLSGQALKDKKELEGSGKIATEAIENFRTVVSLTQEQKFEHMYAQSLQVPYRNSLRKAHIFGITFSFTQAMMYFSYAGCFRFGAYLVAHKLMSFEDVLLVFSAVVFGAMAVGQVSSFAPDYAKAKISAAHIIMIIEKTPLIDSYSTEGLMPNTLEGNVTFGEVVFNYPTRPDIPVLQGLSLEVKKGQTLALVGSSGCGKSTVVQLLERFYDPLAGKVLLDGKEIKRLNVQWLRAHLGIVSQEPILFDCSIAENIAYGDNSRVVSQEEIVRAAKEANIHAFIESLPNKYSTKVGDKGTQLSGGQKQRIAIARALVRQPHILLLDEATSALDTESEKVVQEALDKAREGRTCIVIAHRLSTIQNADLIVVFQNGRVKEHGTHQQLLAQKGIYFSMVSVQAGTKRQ

P-gp (ABCB1) [2] = target: T1, P-gp (ABCB1); assay: Activation of human P-gp expressed in high five insect cell membrane vesicles by measuring the vanadate-sensitive ATPase activity of P-gp at 2.5 uM preincubated for 5 mins in the presence of sodium orthovanadate measured after 20 mins by colorimetric method; settings: read-out: Activity

Row | Compound | activity at 20 min, 0.5 µM (P-gp (ABCB1) [1]) [%] | activity at 20 min, 2.5 µM (P-gp (ABCB1) [2]) [%]
1 | COc1cc(C(=O)N[C@H](c2nc(C(=O)N3CCC(=O)CC3)cs2)C(C)C)cc(OC)c1OC | ≤ 10 | ≤ 10
2 | COc1cc(C(=O)N[C@H](c2nc(C(=O)NC3CCN(Cc4ccccc4)CC3)cs2)C(C)C)cc(OC)c1OC | 169 | 154
3 | COc1ccc(C(=O)N[C@H](c2nc(C(=O)NC3CCC(F)(F)CC3)cs2)C(C)C)cc1OC |  | 11.9
4 | COc1cc(C(=O)N[C@H](c2nc(C(=O)NC3CCN(C(=O)OC(C)(C)C)CC3)cs2)C(C)C)cc(OC)c1OC | 52.7 | 48
5 | COc1cc(C(=O)C(=O)N[C@H](c2nc(C(=O)NC3CCC(F)(F)CC3)cs2)C(C)C)cc(OC)c1OC |  | 178
6 | COc1cc(C(=O)N[C@H](c2nc(C(=O)Nc3ccccc3C(=O)c3ccc(N=[N+]=[N-])cc3)cs2)C(C)C)cc(OC)c1OC | 148 | 169
7 | COc1cc(C(=O)NCc2nc(C(=O)NC3CCC(F)(F)CC3)cs2)cc(OC)c1OC | ≤ 10 | 13
8 | COc1cc(C(=O)N[C@H](c2nc(C(=O)NC3CCC(C)(C)CC3)cs2)C(C)C)cc(OC)c1OC | ≤ 10 | 34.3
9 | COc1cc(C(=S)N[C@H](c2nc(C(=S)NC3CCCCC3)cs2)C(C)C)cc(OC)c1OC | 65 | 92
10 | COc1cc(C(=O)NC(CC(C)C)c2nc(C(=O)NC3CCC(F)(F)CC3)cs2)cc(OC)c1OC (stereo not given) | 16 | 68
11 | COc1cc(C(=O)N[C@H](c2nc(C(=O)N3CCC(F)(F)CC3)cs2)C(C)C)cc(OC)c1OC | 40.9 | 55.9
12 | CC(C)[C@H](NC(=O)c1ccccc1N=[N+]=[N-])c1nc(C(=O)Nc2ccccc2C(=O)c2ccccc2)cs1 | 142 | 182
13 | COc1cc(C(=S)N[C@H](c2nc(C(=S)NC3CCC(F)(F)CC3)cs2)C(C)C)cc(OC)c1OC | 25 | 64
14 | COc1cc(C(=O)N[C@H](c2nc(C(=O)NCC3CCNCC3)cs2)C(C)C)cc(OC)c1OC | 23 | ≤ 10
15 | COc1cc(C(=O)N[C@H](c2nc(C(=O)N3CCC(C(F)(F)F)CC3)cs2)C(C)C)cc(OC)c1OC | 13.3 | 75.6
16 | COc1cc(C(=O)N[C@H](c2nc(C(=O)N(C3CCCCC3)C3CCCCC3)cs2)C(C)C)cc(OC)c1OC | 109 | 134
17 | COc1cc(C(=O)Nc2nc(C(=O)NC3CCC(F)(F)CC3)cs2)cc(OC)c1OC | 53.9 | 60.2
18 | CC(C)[C@H](NC(=O)c1cnc2ccccc2c1)c1nc(C(=O)NC2CCC(F)(F)CC2)cs1 |  | 83.9
19 | CC(C)[C@H](NC(=O)c1cncnc1)c1nc(C(=O)NC2CCC(F)(F)CC2)cs1 |  | ≤ 10
20 | COc1cc(C(=O)N[C@H](c2nc(C(=O)Nc3ccc(F)cc3)cs2)C(C)C)cc(OC)c1OC | 59.5 | 244
21 | COc1cc(C(=O)N[C@H](c2nc(C(=O)NC3CCS(=O)(=O)CC3)cs2)C(C)C)cc(OC)c1OC | ≤ 10 | ≤ 10
22 | CC(C)[C@H](NC(=O)C1CCOCC1)c1nc(C(=O)NC2CCC(F)(F)CC2)cs1 |  | ≤ 10
23 | CC(C)[C@H](NC(=O)c1ccc(N=[N+]=[N-])cc1)c1nc(C(=O)Nc2ccccc2C(=O)c2ccc(Br)cc2)cs1 | 99.4 | 84.7
24 | COc1cc(CC(=O)N[C@H](c2nc(C(=O)NC3CCC(F)(F)CC3)cs2)C(C)C)cc(OC)c1OC |  | 70.2
25 | CC(C)[C@H](NC(=O)c1ccccc1)c1nc(C(=O)NC2CCC(F)(F)CC2)cs1 |  | 10.5
26 | CC(C)[C@H](NC(=O)c1cscn1)c1nc(C(=O)NC2CCC(F)(F)CC2)cs1 |  | 49.7
27 | COc1ccc(C(=O)N[C@H](c2nc(C(=O)NC3CCC(F)(F)CC3)cs2)C(C)C)cc1 |  | 35.8
